Patent publication US20220073910A1, “A Cross-Linking Approach to Map Small Molecule-RNA Binding Sites in Cells” (priority 2019, published 2022)
Starred links: 1 amine or outer side, 2 acyl side, 3 side chain; linkers in the order of their positions; H or OH if unused. Non-standard residues stand in square brackets, D forms with d. Residues, ends and D or L forms follow the SMILES beside them. *: point of attachment. Biotinyl(3aR,4R,6aS) = O=C1N[C@@H]2[C@@H](CS[C@@H]2CCCCC(=O)*)N1; N(2-Aminoethyl)Gly = O=C(CN(CCN[*:3])[*:1])[*:2]; Chlorambucil = O=C(CCCc1ccc(N(CCCl)CCCl)cc1)*; Gly(N-propargyl) = C#CCNCC(=O)O; NPrGly = CCCNCC(=O)O

Legend:
[1] = test system: pri-miR-96 (Drosha processing); experiment: RT-qPCR of mature miR-96 and pri-miR-96 levels in MDA-MB-231 TNBC cells; format: cell-based; conditions: MDA-MB-231 cells, 50 nM
Protocol: (§1) A—Effects of compounds 1 and 2 (50 nM) on mature miR-96 and pri-miR-96 levels. B—Effects of compounds 1 and 2 (50 nM) on FOXO1 protein expression. C— Profiling of miRNAs predicted to target FOXO1 mRNA by TargetScan in compound 2-treated MDA-MB-231 cells. D—Volcano plot profiling the effect of compound 2 on all miRNAs that are expressed in MDA-MB-231 cells (blue circles are miRNAs predicted to target FOXO1 mRNA by TargetScan). E—Effects of compounds 1, 2, and 3 on Caspase 3/7 activity, indicative of apoptosis, in MDA-MB-231 TNBC cells. F—Effects of compounds 1, 2, and 3 on Caspase 3/7 activity, indicative of apoptosis, in MCF-10A normal breast epithelial cells.

FOXO1 protein = FOXO1 protein expression in MDA-MB-231 cells; format: cell-based; conditions: 50 nM
Protocol: as §1
(§2) Since miR-96 suppresses apoptosis in cancer cells by repressing the translation of Forkhead box 01 (FOXO1) transcription factor,^15 the effects of 1, 2, and 3 on FOXO1 protein levels were measured in MDA-MB-231 cells. […] To validate that the increase in FOXO1 levels was mediated by inhibition of miR-96, we studied the effects of 1 and 2 on all 15 miRNAs predicted to target the FOXO1 3′ untranslated region (UTR) by TargetScan (FIG. 3C). […] To further probe 2's selectivity for pri-miR-96, we performed an unbiased profiling experiment on 373 miRNAs expressed in MDA-MB-231 TNBC cells (based on Qiagen miRNA Human miRbase profiler HC).

MCF-10A cells = experiment: Caspase 3/7 activity (apoptosis) in MCF-10A normal breast epithelial cells; format: cell-based; conditions: healthy breast epithelial MCF-10A cells
Protocol: as §1
(§3) We next studied the ability of 1 and 2 to trigger apoptosis, i.e., reverse phenotype, in MDA-MB-231 by measuring Caspase activity. […] Compound 3 had no effect on Caspase activity, as expected. […] Thus, the covalent compounds show relative selectivity for cancerous over healthy breast cells.

MDA-MB-231 TNBC cells = experiment: Caspase 3/7 activity (apoptosis) in MDA-MB-231 TNBC cells; format: cell-based; conditions: MDA-MB-231 cells
Protocol: as §1, §3

[2] = test system: miRNAs predicted to target FOXO1 mRNA; experiment: Profiling of 15 miRNAs predicted by TargetScan to target FOXO1 3' UTR; format: cell-based; conditions: MDA-MB-231 cells
Protocol: as §1, §2

pri-miR-96 [3] = conditions: in vitro, cited from earlier work; for pulldown of pri-miR-96 adducts with streptavidin beads: radioactively labeled pri-miR-96 RNA
pri-miR-96 [4] = conditions: in cells, cited from earlier work
[5] = test system: 373 miRNAs expressed in MDA-MB-231 TNBC cells; experiment: Unbiased profiling of 373 miRNAs expressed in MDA-MB-231 TNBC cells; format: cell-based; conditions: Qiagen miRNA Human miRbase profiler HC
Protocol: as §1, §2

pri-miR-96 [6] = experiment: Chem-CLIP-Map-Seq binding site mapping within pri-miR-96 in MDA-MB-231 TNBC cells; format: cell-based; conditions: MDA-MB-231 cells, 1000 nM
Description: A—Scheme of amplification approach to identify small molecule binding site in pri-miR-96. B— In cellulis mapping of the binding site for compound 2 within pri-miR-96 in MDA-MB-231 TNBC cells. Percentages indicate the number of sequences observed terminating at the respective nucleotide adjacent to the percentage.
Given the enrichment of pri-miR-96 in the pulled down fraction and 2's pro-apoptotic properties, we mapped 2's binding site within pri-miR-96 in cells. We defined 2's cellular binding site within pri-miR-96. […] After reverse transcription, ssDNA adaptors were ligated to the cDNA, followed by which was cloned into NEB's pminiT 2.0 vector and sequenced. Mirroring the predicted and validated (via nuclease mapping^14) binding site, 2's binding site was localized to nucleotides that are proximal to pri-miR-96's Drosha site (FIG. 4B). In particular, the most occupied binding site observed is a C residue four nucleotides upstream of the UU internal loop bound by 1 (54%; highlighted in red in FIG. 4). Two other reactions sites were observed: (i) a G residue in the GG internal loop that binds 1 (14%); and (ii) a U residue 13 nucleotides upstream of the UU internal loop that is part of the Drosha processing site (24%). To support our cellular mapping experiments, we modeled 2 bound to pri-miR-96 (FIG. 4B). Indeed, the distance between 2's cross-linking module and the most reacted nucleotides match precisely.

Compound | increase in pri-miR-96 abundance [1] | mature miR-96 levels [1] | FOXO1 protein expression (FOXO1 protein) | Caspase activity indicative of apoptosis (MCF-10A cells) | Caspase activity indicative of apoptosis (MDA-MB-231 TNBC cells) | effect on all 15 miRNAs predicted to target the FOXO1 3' UTR [2] | competition of pri-miR-96 pulldown by 2 (C-Chem-CLIP) (pri-miR-96 [3]; constant 2 (1000 nM), increasing amounts of 1) | competition of pri-miR-96 pulldown (cellular C-Chem-CLIP) (pri-miR-96 [4]; increasing concentration of 1) | selectivity profiling on 373 miRNAs (volcano plot) [5] | sequences terminating at reaction site: C residue four nucleotides upstream of the UU internal loop (pri-miR-96 [6]) [%] | sequences terminating at reaction site: G residue in the GG internal loop (pri-miR-96 [6]) [%] | sequences terminating at reaction site: U residue 13 nucleotides upstream of the UU internal loop (Drosha processing site) (pri-miR-96 [6]) [%] | pulldown of pri-miR-96 adducts with streptavidin beads (pri-miR-96 [3]) | enrichment of pri-miRNA-96 in the pulled down fraction (pri-miR-96 [4]; compared to sample prior to incubation with streptavidin beads, RT-qPCR) [fold]
CCCN(CC(=O)N(CCC)CC(=O)N(CC(N)=O)Cc1cn(CCCNC(=O)CCCOc2c(C(C)(C)C)cc(-c3nc4cc(N5CCN(C)CC5)ccc4[nH]3)cc2C(C)(C)C)nn1)C(=O)CCCOc1cccc(-c2nc3ccc(-c4nc5cc(N6CCN(C)CC6)ccc5[nH]4)cc3[nH]2)c1 [compound 1, Targaprimir-96] | ca. 1.5 fold | reduced | enhanced the expression of FOXO1 protein | neither 1 nor 2 had any effect | increased Caspase activity | Only miR-96 was inhibited significantly | 1-dependent decrease in the amount of RNA pulled down by 2 | decreased as a function of the concentration of 1 | – | – | – | – | – | –
CCCN(CC(=O)N(CC(=O)N(CCNC(=O)CCCC[C@H]1SC[C@H]2NC(=O)N[C@H]21)CC(N)=O)Cc1cn(CCCNC(=O)CCCOc2c(C(C)(C)C)cc(-c3nc4cc(N5CCN(C)CC5)ccc4[nH]3)cc2C(C)(C)C)nn1)C(=O)CN(CCNC(=O)CCCc1ccc(N(CCCl)CCCl)cc1)C(=O)CCCOc1cccc(-c2nc3ccc(-c4nc5cc(N6CCN(C)CC6)ccc5[nH]4)cc3[nH]2)c1 [compound 2] | ca. 1.5 fold | reduced to a similar extent as the parent compound 1 | enhanced the expression of FOXO1 protein | neither 1 nor 2 had any effect | increased Caspase activity | Only miR-96 was inhibited significantly | – | – | miR-96 was the most affected | 54 | 14 | 24 | Specific engagement | 5
C#CCN(CC(=O)N(CCNC(=O)CCCC[C@H]1SC[C@H]2NC(=O)N[C@H]21)CC(N)=O)C(=O)CN(CCC)C(=O)CN(CCNC(=O)CCCc1ccc(N(CCCl)CCCl)cc1)C(C)=O [compound 3] (Ac-[N(2-Aminoethyl)Gly](Chlorambucil)[NPrGly][Gly(N-propargyl)][N(2-Aminoethyl)Gly](Biotinyl(3aR,4R,6aS))-NH2) | – | No effect | – | – | no effect | – | – | – | – | – | – | – | no pulldown | –
